Experimental data as given in patent US20230226005A1, “Methods of Treating, Ameliorating, Shortening Duration, and/or Reversing Symptoms and/or Complications of a Coronavirus Infection” (Yale University, priority 2020, published 2023).

What was measured:
Type in all cases: in vivo
COVID-19 infection [1] = assay: Phase IIa study: gastrointestinal-family symptom score; settings: for gastrointestinal-family symptoms, Fitzmaurice mixed effects model, Effect: Camostat vs Placebo
COVID-19 infection [2] = assay: Phase IIa study: nose-family symptom score
COVID-19 infection [3] = assay: Phase IIa study: COVID-19 PRO daily self-score, symptom severity score (items 1-33, 0-132)

CN(C)C(=O)COC(=O)Cc1ccc(OC(=O)c2ccc(NC(=N)N)cc2)cc1 [camostat, 4-[[4-[(Aminoiminomethyl)amino]benzoyl]oxy]benzeneacetic acid 2-(dimethylamino)-2-oxoethyl ester]
gastrointestinal-family symptoms, Fitzmaurice mixed effects model, Camostat (COVID-19 infection [1]; Day 0): 2.1 (0.2)
gastrointestinal-family symptoms, Fitzmaurice mixed effects model, Camostat (COVID-19 infection [1]; Day 1): 2.4 (0.3)
gastrointestinal-family symptoms, Fitzmaurice mixed effects model, Effect (COVID-19 infection [1]; Day 1): −0.4 (0.4)
gastrointestinal-family symptoms, Fitzmaurice mixed effects model, Camostat (COVID-19 infection [1]; Day 2): 2 (0.3)
gastrointestinal-family symptoms, Fitzmaurice mixed effects model, Effect (COVID-19 infection [1]; Day 2): −0.1 (0.4)
gastrointestinal-family symptoms, Fitzmaurice mixed effects model, Camostat (COVID-19 infection [1]; Day 3): 1.6 (0.3)
gastrointestinal-family symptoms, Fitzmaurice mixed effects model, Effect (COVID-19 infection [1]; Day 3): 0.1 (0.4)
gastrointestinal-family symptoms, Fitzmaurice mixed effects model, Camostat (COVID-19 infection [1]; Day 4): 1 (0.3)
gastrointestinal-family symptoms, Fitzmaurice mixed effects model, Effect (COVID-19 infection [1]; Day 4): 0.8 (0.4)
gastrointestinal-family symptoms, Fitzmaurice mixed effects model, Camostat (COVID-19 infection [1]; Day 5): 0.9 (0.3)
gastrointestinal-family symptoms, Fitzmaurice mixed effects model, Effect (COVID-19 infection [1]; Day 5): 0.5 (0.4)
gastrointestinal-family symptoms, Fitzmaurice mixed effects model, Camostat (COVID-19 infection [1]; Day 6): 0.8 (0.3)
gastrointestinal-family symptoms, Fitzmaurice mixed effects model, Effect (COVID-19 infection [1]; Day 6): 0.6 (0.4)
gastrointestinal-family symptoms, Fitzmaurice mixed effects model, Camostat (COVID-19 infection [1]; Day 7): 0.7 (0.3)
gastrointestinal-family symptoms, Fitzmaurice mixed effects model, Effect (COVID-19 infection [1]; Day 7): 0.4 (0.4)
gastrointestinal-family symptoms, Fitzmaurice mixed effects model, Camostat (COVID-19 infection [1]; Day 8): 0.6 (0.3)
gastrointestinal-family symptoms, Fitzmaurice mixed effects model, Effect (COVID-19 infection [1]; Day 8): 0.5 (0.4)
gastrointestinal-family symptoms, Fitzmaurice mixed effects model, Camostat (COVID-19 infection [1]; Day 9): 0.5 (0.3)
gastrointestinal-family symptoms, Fitzmaurice mixed effects model, Effect (COVID-19 infection [1]; Day 9): 0.5 (0.4)
gastrointestinal-family symptoms, Fitzmaurice mixed effects model, Camostat (COVID-19 infection [1]; Day 10): 0.8 (0.3)
gastrointestinal-family symptoms, Fitzmaurice mixed effects model, Effect (COVID-19 infection [1]; Day 10): 0.2 (0.4)
gastrointestinal-family symptoms, Fitzmaurice mixed effects model, Camostat (COVID-19 infection [1]; Day 11): 0.5 (0.3)
gastrointestinal-family symptoms, Fitzmaurice mixed effects model, Effect (COVID-19 infection [1]; Day 11): 0.2 (0.4)
gastrointestinal-family symptoms, Fitzmaurice mixed effects model, Camostat (COVID-19 infection [1]; Day 12): 0.4 (0.3)
gastrointestinal-family symptoms, Fitzmaurice mixed effects model, Effect (COVID-19 infection [1]; Day 12): 0.3 (0.4)
gastrointestinal-family symptoms, Fitzmaurice mixed effects model, Camostat (COVID-19 infection [1]; Day 13): 0.5 (0.3)
gastrointestinal-family symptoms, Fitzmaurice mixed effects model, Effect (COVID-19 infection [1]; Day 13): 0.1 (0.4)
gastrointestinal-family symptoms, Fitzmaurice mixed effects model, Camostat (COVID-19 infection [1]; Day 14): 0.3 (0.3)
gastrointestinal-family symptoms, Fitzmaurice mixed effects model, Effect (COVID-19 infection [1]; Day 14): 0.4 (0.4)
nose-family symptom score, Fitzmaurice model, Camostat (COVID-19 infection [2]; day 0): 7.6 (0.5)
nose-family symptom score, Fitzmaurice model, Camostat (COVID-19 infection [2]; day 1): 6.6 (0.6)
nose-family symptom score, Fitzmaurice model, Effect (placebo vs camostat) (COVID-19 infection [2]; day 1): 1.3 (0.7)
nose-family symptom score, Fitzmaurice model, Camostat (COVID-19 infection [2]; day 2): 6.6 (0.6)
nose-family symptom score, Fitzmaurice model, Effect (placebo vs camostat) (COVID-19 infection [2]; day 2): 0 (0.7)
nose-family symptom score, Fitzmaurice model, Camostat (COVID-19 infection [2]; day 3): 5.7 (0.6)
nose-family symptom score, Fitzmaurice model, Effect (placebo vs camostat) (COVID-19 infection [2]; day 3): 0.5 (0.7)
nose-family symptom score, Fitzmaurice model, Camostat (COVID-19 infection [2]; day 4): 5.6 (0.6)
nose-family symptom score, Fitzmaurice model, Effect (placebo vs camostat) (COVID-19 infection [2]; day 4): 0 (0.7)
nose-family symptom score, Fitzmaurice model, Camostat (COVID-19 infection [2]; day 5): 5.3 (0.6)
nose-family symptom score, Fitzmaurice model, Effect (placebo vs camostat) (COVID-19 infection [2]; day 5): 1 (0.7)
nose-family symptom score, Fitzmaurice model, Camostat (COVID-19 infection [2]; day 6): 3.9 (0.6)
nose-family symptom score, Fitzmaurice model, Effect (placebo vs camostat) (COVID-19 infection [2]; day 6): 1.4 (0.7)
nose-family symptom score, Fitzmaurice model, Camostat (COVID-19 infection [2]; day 7): 3.6 (0.6)
nose-family symptom score, Fitzmaurice model, Effect (placebo vs camostat) (COVID-19 infection [2]; day 7): 1.2 (0.7)
nose-family symptom score, Fitzmaurice model, Camostat (COVID-19 infection [2]; day 8): 3.3 (0.6)
nose-family symptom score, Fitzmaurice model, Effect (placebo vs camostat) (COVID-19 infection [2]; day 8): 1.5 (0.7)
nose-family symptom score, Fitzmaurice model, Camostat (COVID-19 infection [2]; day 9): 2.9 (0.6)
nose-family symptom score, Fitzmaurice model, Effect (placebo vs camostat) (COVID-19 infection [2]; day 9): 1.3 (0.7)
nose-family symptom score, Fitzmaurice model, Camostat (COVID-19 infection [2]; day 10): 2.9 (0.6)
nose-family symptom score, Fitzmaurice model, Effect (placebo vs camostat) (COVID-19 infection [2]; day 10): 0.9 (0.7)
nose-family symptom score, Fitzmaurice model, Camostat (COVID-19 infection [2]; day 11): 3 (0.6)
nose-family symptom score, Fitzmaurice model, Effect (placebo vs camostat) (COVID-19 infection [2]; day 11): 0.4 (0.7)
nose-family symptom score, Fitzmaurice model, Camostat (COVID-19 infection [2]; day 12): 2.5 (0.6)
nose-family symptom score, Fitzmaurice model, Effect (placebo vs camostat) (COVID-19 infection [2]; day 12): 0.7 (0.7)
nose-family symptom score, Fitzmaurice model, Camostat (COVID-19 infection [2]; day 13): 2.7 (0.6)
nose-family symptom score, Fitzmaurice model, Effect (placebo vs camostat) (COVID-19 infection [2]; day 13): 0.1 (0.7)
nose-family symptom score, Fitzmaurice model, Camostat (COVID-19 infection [2]; day 14): 2.7 (0.6)
nose-family symptom score, Fitzmaurice model, Effect (placebo vs camostat) (COVID-19 infection [2]; day 14): 0.2 (0.8)
acceleration of COVID-19 symptom resolution (COVID-19 infection [3]; COVID-19 PRO self-score, vs placebo): up to 5 days
COVID-19 symptom severity score raw Mean (COVID-19 infection [3]; day 0): 34.9
symptom score, Fitzmaurice mixed effects model, A: Camostat arm (COVID-19 infection [3]; day 0): 31.81 (2.17)
symptom score, Fitzmaurice mixed effects model, B − A (placebo − camostat) (COVID-19 infection [3]; day 0): 0
symptom severity score, Negative binomial model, A: Camostat arm (COVID-19 infection [3]; day 0): 31.81 (2.56)
symptom severity score, Negative binomial model, B − A (COVID-19 infection [3]; day 0): 0
COVID-19 symptom severity score raw Mean (COVID-19 infection [3]; day 1): 30.4
symptom score, Fitzmaurice mixed effects model, A: Camostat arm (COVID-19 infection [3]; day 1): 27.95 (2.59)
symptom score, Fitzmaurice mixed effects model, B − A (placebo − camostat) (COVID-19 infection [3]; day 1): −0.73 (2.76)
symptom severity score, ANCOVA linear mixed model, A: Camostat arm (COVID-19 infection [3]; day 1): −2.93 (2.11)
symptom severity score, ANCOVA linear mixed model, B − A (placebo − camostat) (COVID-19 infection [3]; day 1): −1.83 (2.99)
symptom severity score, Negative binomial model, A: Camostat arm (COVID-19 infection [3]; day 1): 28.22 (3.06)
symptom severity score, Negative binomial model, B − A (COVID-19 infection [3]; day 1): 0.95 (0.1)
COVID-19 symptom severity score raw Mean (COVID-19 infection [3]; day 2): 29.7
symptom score, Fitzmaurice mixed effects model, A: Camostat arm (COVID-19 infection [3]; day 2): 26.89 (2.63)
symptom score, Fitzmaurice mixed effects model, B − A (placebo − camostat) (COVID-19 infection [3]; day 2): −3.09 (2.8)
symptom severity score, ANCOVA linear mixed model, A: Camostat arm (COVID-19 infection [3]; day 2): −3.96 (2.16)
symptom severity score, ANCOVA linear mixed model, B − A (placebo − camostat) (COVID-19 infection [3]; day 2): −4.22 (3.02)
symptom severity score, Negative binomial model, A: Camostat arm (COVID-19 infection [3]; day 2): 27.28 (3.05)
symptom severity score, Negative binomial model, B − A (COVID-19 infection [3]; day 2): 0.85 (0.1)
COVID-19 symptom severity score raw Mean (COVID-19 infection [3]; day 3): 24.1
symptom score, Fitzmaurice mixed effects model, A: Camostat arm (COVID-19 infection [3]; day 3): 22.97 (2.6)
symptom score, Fitzmaurice mixed effects model, B − A (placebo − camostat) (COVID-19 infection [3]; day 3): −0.36 (2.79)
